Counter-ions that a name gives are not always drawn.
system: mice (phenylquinone-induced stretching or writhing syndrome); assay: standard phenylquinone writhing test (PQW), oral analgesia in mice; format: in vivo, female white mice; conditions: Mus musculus, po, read-out: PQW ED50
Experimental: A standard procedure for detecting and comparing the analgesic activity of compounds in this series for which there is good correlation with human efficacy is the standard phenylquinone writhing test (PQW) modified from Siegmund, et al., Proc. Soc. Exp. Biol. Med. 95, 729 (1957). A test compound suspended in 1% methylcellulose was given orally to fasted (17-21 hours) female white mice, 5-20 animals per dose in a double blind test. Aqueous (0.01% phenyl-p-benzoquinone) phenylquinone was injected intraperitoneally at 23 or 30 minutes later using 0.20 ml per mouse. […] The effective analgesic dose for 50% of the mice (ED 50) was calculated by the moving average method of Weil, Biometrics 8, 249 (1952).

SMILES | ED50 [mg/kg]
CN1CC[C@]23c4c5ccc(O)c4O[C@H]2[C@@H](O)C=C[C@H]3[C@H]1C5 [Morphine H2 SO4, reference compound] | 1.6

same assay, conditions: Mus musculus, po; mice; phenylquinone i.p.; effective analgesic dose for 50% of the mice (Table II); read-out: PQW ED50

SMILES | ED50 [mg/kg]
COc1cccc(C23CCCCC2CN(CCc2ccc(Cl)cc2)CC3)c1 (stereo not drawn) | 16
COc1cccc(C23CCCCC2CN(CCc2cccs2)CC3)c1 (stereo not drawn) | 27
COc1cccc(C23CCCCC2CN(CCc2ccc(C)cc2)CC3)c1 (stereo not drawn) | 11
CCCCCN1CCC2(c3cccc(OC)c3)CCCCC2C1 (stereo not drawn) [C5 H11 m-OCH3] | 20
COc1cccc(C23CCCCC2CN(CCc2ccc(F)cc2)CC3)c1 (stereo not drawn) | 33
CC(C)=CCN1CCC2(C)c3cc(O)ccc3CC1C2C.Cl (stereo not drawn) [Pentazocine HCl, reference compound] | 57
CC(=O)Oc1ccccc1C(=O)O [Aspirin, reference compound] | 109
C=CCN1CC[C@]2(c3cccc(O)c3)CCCC[C@@H]2C1 (relative stereo) [CH2CHCH2 m-OH, N-Allyl-4a-(m-hydroxyphenyl)-cis-decahydroisoquinoline] | 43
Oc1cccc(C23CCCCC2CN(CCc2ccccc2)CC3)c1 (stereo not drawn) | 21
CN1CCC2(c3cccc(O)c3)CCCCC2C1 (stereo not drawn) [CH3 m-OH] | 2.9
CC(C)=CCN1CC[C@]2(c3cccc(O)c3)CCCC[C@@H]2C1 (relative stereo) [CH2CHC(CH3)2 m-OH, N-(3,3-Dimethylallyl)-4a-(m-hydroxyphenyl)-cis-decahydroisoquinoline] | 40
COc1ccc2c3c1O[C@H]1[C@@H](O)C=C[C@H]4[C@@H](C2)N(C)CC[C@@]341 [Codeine H3 PO4, reference compound] | 8
Oc1cccc(C23CCCCC2CN(CC2CC2)CC3)c1 (stereo not drawn) | 20
Oc1cccc(C23CCCCC2CN(CCc2cccs2)CC3)c1 (stereo not drawn) | 24
COc1cccc(C23CCCCC2CN(CC2CCC2)CC3)c1 (stereo not drawn) | 18.5
COc1cccc(C23CCCCC2CN(CC2CC2)CC3)c1 (stereo not drawn) | 14
Cc1ccc(CCN2CCC3(c4cccc(O)c4)CCCCC3C2)cc1 (stereo not drawn) | 9.7
CC(=O)Oc1cccc(C23CCCCC2CN(CCc2cccs2)CC3)c1 (stereo not drawn) | 27
COc1cccc(C23CCCCC2CN(CCc2ccco2)CC3)c1 (stereo not drawn) | 25
COc1cccc(C23CCCCC2CN(CCc2ccccc2)CC3)c1 (stereo not drawn) | 14.5
Oc1cccc(C23CCCCC2CN(CCc2ccc(Cl)cc2)CC3)c1 (stereo not drawn) | 28
COc1cccc(C23CCCCC2CN(CCc2ccc(N(C)C)cc2)CC3)c1 (stereo not drawn) | 15.1
CN1CC[C@]2(c3ccc(F)cc3)CCCC[C@@H]2C1 (relative stereo) [CH3 p-F, N-methyl-4a-(p-fluorophenyl)-cis-decahydroisoquinoline] | 26
Oc1ccc2c3c1O[C@H]1[C@@H](O)CC[C@@]4(O)[C@@H](C2)N(CC2CCC2)CC[C@]314 [Nalbuphine HCl, reference compound] | 8.4
Oc1cccc(C23CCCCC2CN(CC2CCC2)CC3)c1 (stereo not drawn) | 20

same assay, conditions: Mus musculus, po; mouse (Table III, additional compounds); read-out: Mouse ED50 Analgesia (PQW)-Oral

SMILES | ED50 [mg/kg]
COc1cccc(C23CCN(CCc4ccc(C)cc4)CC2CCC(C)C3)c1 (stereo not drawn) [Example 20-G, N-(p-Tolylethyl)-4a-m-methoxyphenyl-6β-methyl-cis-decahydroisoquinoline] | 28
COc1cccc(C23CCN(Cc4ccco4)CC2CCC(C)C3)c1 (stereo not drawn) [Example 28, N-(2-Furylmethyl)-4a-m-methoxyphenyl-6β-methyl-cis-decahydroisoquinoline] | 61
COc1cccc(C23CCN(C)CC2CCC(C)C3)c1 (stereo not drawn) [Example 23, N-Methyl-4a-m-methoxyphenyl-6β-methyl-cis-decahydroisoquinoline] | 3.5
CC1CCC2CN(CCc3ccccc3)CCC2(c2cccc(O)c2)C1 (stereo not drawn) [Example 27-C, N-Phenethyl-4a-m-hydroxyphenyl-6β-methyl-cis-decahydroisoquinoline] | 10.8
CC1CCC2CN(CC3CCC3)CCC2(c2cccc(O)c2)C1 (stereo not drawn) [Example 22-C, N-Cyclobutylmethyl-4a-m-hydroxyphenyl-6β-methyl-cis-decahydroisoquinoline] | 54

same assay, conditions: oral; mouse (Table III, additional compounds)

SMILES | Mouse ED50 Analgesia (PQW)-Oral [mg/kg]
COc1cccc(C23CCN(CCc4ccc(C)cc4)CC2CCC(C)C3)c1 (stereo not drawn) [Example 20-G, N-(p-Tolylethyl)-4a-m-methoxyphenyl-6β-methyl-cis-decahydroisoquinoline] | 22

system: not given; assay: not given; conditions: J. Am. Chem. Soc. 72, 712 (1950); cited from earlier work

SMILES | analgesic activity
CN1CC[C@]2(c3ccccc3)CCCC[C@@H]2C1 (relative stereo) [N-Methyl-4a-phenyl-cis-decahydroisoquinoline] | low analgesic activity

— patent US4150135A, “Substituted 4a-phenyl-N-phenylalkyl-cis-decahydroisoquinolines” (priority 1977, dated 1979)
